The nature of data set [1]: Cytotoxicity in the plaque reduction assay cultures. Particulars: monkey; minimum concentration of test compound which caused cytotoxicity; Vero cells, 4 days; highest concentration tested 100; read-out: MTD. It is filed as cell-based, African Green Monkey. The protocol:
(§1) Vero (African Green Monkey Kidney) cells were grown to confluence in 24 well multidishes, each well being 1.6 cm in diameter. The cells were infected with Herpes simplex type 1 virus (HFEM strain) and overlaid with 0.5ml of 0.9% agarose (w/v) in maintenance medium. Test compounds prepared in maintenance medium in concentrations ranging from 100 to 0.03 pg/ml in half-log dilution steps, were added in 0.5ml volume. The virus infected cultures were then incubated at 37 °C for 4 days before fixing in 4% formaldehyde solution and staining with carbolfuchsin.

Data set [2] concerns Herpes simplex type 1 virus (HFEM strain). Briefly: Plaque reduction assay in virus-infected Vero cells. It is filed as cell-based. The conditions noted are these: Human alphaherpesvirus 1, 96 h, concentration causing 50% reduction in number of virus plaques, HSV-1 HFEM strain, 4 days incubation at 37 C, read-out: PDD50 (the source's name). The protocol:
as §1

Among the data in patent EP0104857A1, “Deoxyuridine compounds, methods for preparing them and their use in medicine” (BEECHAM GROUP PLC, priority 1982, dated 1984) are MCC and IC50 values, retold here.

Where two headings read alike, the source gives them in different places.

In the case of `O=c1[nH]c(=O)n([C@H]2C[C@H](OC3CCCO3)[C@@H](COC3CCCO3)O2)cc1/C=C/Br` (stereo partly drawn) [Example 1, 5-(E-2-Bromovinyl)-2'-deoxy-3',5'-bis-O-(tetrahydrofuran-2-yl)uridine], the MCC at 96 h in data set [1] is above 100 µg/mL. The IC50 was determined as 9 µM in data set [2] (molar units) and 4.3 µg/mL in data set [2].
In the case of `O=c1[nH]c(=O)n([C@H]2C[C@H](O)[C@@H](COCOCc3ccccc3)O2)cc1/C=C/Br` [Example 12, 5'-O-benzoxymethyl-5-(E-2-bromovinyl)-2'-deoxyuridine], the MCC at 96 h in data set [1] was above 100 µg/mL. For the same compound, the values for the IC50 in data set [2] (molar units) and in data set [2] were 15 µM and 6.6 µg/mL, respectively.
On the same counts, the results for `O=c1[nH]c(=O)n([C@H]2C[C@H](O)[C@@H](COC3CCCCO3)O2)cc1/C=C/Br` (stereo partly drawn) [Example 6, 5-(E-2-bromo-vinyl) -2'-deoxy-5'-O-(tetrahydropyran-2-yl) uridine] are above 100 µg/mL, 170 µM and 69 µg/mL.
On the same counts, the results for `CCOC(CC)OC[C@H]1O[C@@H](n2cc(/C=C/Br)c(=O)[nH]c2=O)C[C@@H]1O` (stereo partly drawn) [Example 8, 5-(E-2-bromovinyl)-2'-deoxy-5'-O-(1-ethoxypropyl)uridine] are above 100 µg/mL, 15 µM and 6.4 µg/mL.
On the same counts, the results for `CCOC(CCl)OC[C@H]1O[C@@H](n2cc(/C=C/Br)c(=O)[nH]c2=O)C[C@@H]1OC(CCl)OCC` (stereo partly drawn) [Example 19, 5-(E-2-Bromovinyl)-3',5'-bis-0-(2-chloro-1-ethoxyethyl)-2'-deoxyuridine] are above 100 µg/mL, 17 µM and 9.1 µg/mL.
On to `CCOC(CCl)OC[C@H]1O[C@@H](n2cc(/C=C/Br)c(=O)[nH]c2=O)C[C@@H]1O` (stereo partly drawn) [Example 21, 5-(E-2-bromovinyl)-5'-0-(2-chloro-1-ethoxyethyl)-2'-deoxyuridine], for which, in data set [1], the MCC at 96 h was above 100 µg/mL. For the same compound, the IC50 in data set [2] (molar units) is 43 µM; in data set [2], 19 µg/mL.
For `O=c1[nH]c(=O)n([C@H]2C[C@H](OC3CCCCO3)[C@@H](COC3CCCCO3)O2)cc1/C=C/Br` (stereo partly drawn) [Example 4, 5-(E-2-Bromovinyl)-2'-deoxy-3',5'-bis-O-(tetrahdropyropyran-2-yl)uridine] the same measures were 100 µg/mL, 34 µM and 17 µg/mL.
On the same counts, the results for `O=c1[nH]c(=O)n([C@H]2C[C@H](OC3CCCO3)[C@@H](CO)O2)cc1/C=C/Br` (stereo partly drawn) [Example 2, 5-(E-2-bromovinyl)-2'-deoxy-3'-O-(tetrahydrofuran-2-yl)uridine] are above 100 µg/mL, 2.8 µM and 1.1 µg/mL.
On the same counts, the results for `O=c1[nH]c(=O)n([C@H]2C[C@H](OC3CCCCO3)[C@@H](CO)O2)cc1/C=C/Br` (stereo partly drawn) [Example 5, 5-(E-2-bromovinyl)-2'-deoxy-3'-O-(tetrahydropyran-2-yl)uridine] are above 100 µg/mL, 4.3 µM and 1.8 µg/mL.
As to `O=c1[nH]c(=O)n([C@H]2C[C@H](OCOCc3ccccc3)[C@@H](COCOCc3ccccc3)O2)cc1/C=C/Br` [Example 10, 3',5'-Bis-O-benzoxmethl-5-(E-2-bromovinyl)-2'-deoxuridine], the MCC at 96 h in data set [1] was above 100 µg/mL. The values for the IC50 in data set [2] (molar units) and in data set [2] were 126 µM and 72 µg/mL, respectively.
For `CCOC(CCl)O[C@H]1C[C@H](n2cc(/C=C/Br)c(=O)[nH]c2=O)O[C@@H]1CO` (stereo partly drawn) [Example 20, 5-(E-2-bromovinyl)-3'-O-(2-chloro-1-ethoxyethyl)-2^1-deoxyuridine] the same measures were above 100 µg/mL, 7.5 µM and 3.3 µg/mL.
